Measurements published in BigSolDB 2.1.

CC(=O)Oc1ccccc1C(=O)O
solubility (mole fraction)
Settings	283.15 K	288.15 K	293.15 K	298.15 K	303.15 K	308.15 K	313.15 K	318.15 K	323.15 K
in acetone	0.0629	0.0733	0.0821	0.0931	0.105	0.113	0.126	0.138	0.157
in ethanol	0.0334	0.0426	0.0515	0.0614	0.074	0.0876	0.102	0.122	0.141
in ethyl acetate	0.0267	0.0314	0.0361	0.0413	0.0471	0.0543	0.0651	0.0738	0.0849
in n-propanol	0.0254	0.0316	0.037	0.0473	0.0576	0.0687	0.0816	0.0971	0.118
